{"source": "ChEMBL document CHEMBL1926527", "about": "“Pharmacophore insights into rpoB gene mutations in Mycobacterium tuberculosis rifampicin resistant isolates” (2012)", "type_in_all_cases": "functional", "key": {"[1]": {"test_system": "Mycobacterium tuberculosis", "test": "Antimycobacterial activity against Mycobacterium tuberculosis isolate 353 expressing wild-type rpoB gene by resazurin microtiter assay"}, "[2]": {"test_system": "Mycobacterium tuberculosis", "test": "Antimycobacterial activity against Mycobacterium tuberculosis isolate 359 expressing wild-type rpoB gene by resazurin microtiter assay"}, "[3]": {"test_system": "Mycobacterium tuberculosis", "test": "Antimycobacterial activity against Mycobacterium tuberculosis H37Rv ATCC 27294 expressing wild-type rpoB gene by resazurin microtiter assay"}, "[4]": {"test_system": "Mycobacterium tuberculosis", "test": "Antimycobacterial activity against Mycobacterium tuberculosis isolate 361 expressing wild-type rpoB gene by resazurin microtiter assay"}, "[5]": {"test_system": "Mycobacterium tuberculosis", "test": "Antimycobacterial activity against Mycobacterium tuberculosis isolate MA03 expressing wild-type rpoB gene by resazurin microtiter assay"}}, "data": [{"smiles": "C=CCCCCCCCCC(=O)N1C2=C3NC(=O)/C(C)=C\\C=C\\[C@H](C)[C@H](O)[C@@H](C)[C@@H](O)[C@@H](C)[C@H](OC(C)=O)[C@H](C)[C@@H](OC)/C=C/O[C@@]4(C)Oc5c(C)c(O)c(c(c5C4=O)C2=NC12CCN(CC(C)C)CC2)C3=O", "values": [{"measurement": "MIC", "setting": "[1]", "result": "> 2", "unit": "µg/mL"}, {"measurement": "MIC", "setting": "[2]", "result": "< 0.06", "unit": "µg/mL"}, {"measurement": "MIC", "setting": "[3]", "result": 0.06, "unit": "µg/mL"}, {"measurement": "MIC", "setting": "[4]", "result": "< 0.06", "unit": "µg/mL"}, {"measurement": "MIC", "setting": "[5]", "result": "< 0.06", "unit": "µg/mL"}]}, {"smiles": "CO[C@H]1/C=C/O[C@@]2(C)Oc3c(C)c(O)c4c(c3C2=O)C2=NC3(CCN(CC(C)C)CC3)NC2=C(NC(=O)/C(C)=C\\C=C\\[C@H](C)[C@H](O)[C@@H](C)[C@@H](O)[C@@H](C)[C@H](O)[C@@H]1C)C4=O", "values": [{"measurement": "MIC", "setting": "[1]", "result": "> 2", "unit": "µg/mL"}, {"measurement": "MIC", "setting": "[2]", "result": "< 0.06", "unit": "µg/mL"}, {"measurement": "MIC", "setting": "[3]", "result": 0.06, "unit": "µg/mL"}, {"measurement": "MIC", "setting": "[4]", "result": "< 0.06", "unit": "µg/mL"}, {"measurement": "MIC", "setting": "[5]", "result": "< 0.06", "unit": "µg/mL"}]}, {"smiles": "CO[C@H]1/C=C/O[C@@]2(C)Oc3c(C)c(O)c4c(c3[C@H]2O)C2=NC3(CCN(CC(C)C)CC3)N(C(C)=O)C2=C(NC(=O)/C(C)=C\\C=C\\[C@H](C)[C@H](O)[C@@H](C)[C@@H](O)[C@@H](C)[C@H](OC(C)=O)[C@@H]1C)C4=O", "values": [{"measurement": "MIC", "setting": "[1]", "result": "> 2", "unit": "µg/mL"}, {"measurement": "MIC", "setting": "[2]", "result": "< 0.06", "unit": "µg/mL"}, {"measurement": "MIC", "setting": "[3]", "result": 0.06, "unit": "µg/mL"}, {"measurement": "MIC", "setting": "[4]", "result": "< 0.06", "unit": "µg/mL"}, {"measurement": "MIC", "setting": "[5]", "result": "< 0.06", "unit": "µg/mL"}]}, {"smiles": "CO[C@H]1/C=C/O[C@@]2(C)Oc3c(C)c(O)c4c(c3[C@H]2O)C2=NC3(CCN(CC(C)C)CC3)NC2=C(NC(=O)/C(C)=C\\C=C\\[C@H](C)[C@H](O)[C@@H](C)[C@@H](O)[C@@H](C)[C@H](O)[C@@H]1C)C4=O", "values": [{"measurement": "MIC", "setting": "[1]", "result": 2, "unit": "µg/mL"}, {"measurement": "MIC", "setting": "[2]", "result": 0.25, "unit": "µg/mL"}, {"measurement": "MIC", "setting": "[3]", "result": 0.06, "unit": "µg/mL"}, {"measurement": "MIC", "setting": "[4]", "result": 0.12, "unit": "µg/mL"}, {"measurement": "MIC", "setting": "[5]", "result": "< 0.06", "unit": "µg/mL"}]}, {"smiles": "CO[C@H]1/C=C/O[C@@]2(C)Oc3c(C)c(O)c4c(O)c(c(/C=N/N5CCN(C)CC5)c(O)c4c3C2=O)NC(=O)/C(C)=C\\C=C\\[C@H](C)[C@H](O)[C@@H](C)[C@@H](O)[C@@H](C)[C@H](OC(C)=O)[C@@H]1C", "note": "[RIFAMPIN]", "values": [{"measurement": "MIC", "setting": "[1]", "result": "> 2", "unit": "µg/mL"}, {"measurement": "MIC", "setting": "[2]", "result": 0.12, "unit": "µg/mL"}, {"measurement": "MIC", "setting": "[3]", "result": 0.06, "unit": "µg/mL"}, {"measurement": "MIC", "setting": "[4]", "result": "< 0.06", "unit": "µg/mL"}, {"measurement": "MIC", "setting": "[5]", "result": "< 0.06", "unit": "µg/mL"}]}, {"smiles": "CO[C@H]1/C=C/O[C@@]2(C)Oc3c(C)c(O)c4c(c3C2=O)C2=NC3(CCN(CC(C)C)CC3)N(C(C)=O)C2=C(NC(=O)/C(C)=C\\C=C\\[C@H](C)[C@H](O)[C@@H](C)[C@@H](O)[C@@H](C)[C@H](OC(C)=O)[C@@H]1C)C4=O", "values": [{"measurement": "MIC", "setting": "[1]", "result": 0.12, "unit": "µg/mL"}, {"measurement": "MIC", "setting": "[2]", "result": "< 0.06", "unit": "µg/mL"}, {"measurement": "MIC", "setting": "[3]", "result": 0.06, "unit": "µg/mL"}, {"measurement": "MIC", "setting": "[4]", "result": "< 0.06", "unit": "µg/mL"}, {"measurement": "MIC", "setting": "[5]", "result": "< 0.06", "unit": "µg/mL"}]}, {"smiles": "CO[C@H]1/C=C/O[C@@]2(C)Oc3c(C)c(O)c4c(c3C2=O)C2=NC3(CCN(CC(C)C)CC3)NC2=C(NC(=O)/C(C)=C\\C=C\\[C@H](C)[C@H](O)[C@@H](C)[C@@H](O)[C@@H](C)[C@H](OC(C)=O)[C@@H]1C)C4=O", "note": "[RIFABUTIN]", "values": [{"measurement": "MIC", "setting": "[1]", "result": 0.12, "unit": "µg/mL"}, {"measurement": "MIC", "setting": "[2]", "result": "< 0.06", "unit": "µg/mL"}, {"measurement": "MIC", "setting": "[3]", "result": 0.06, "unit": "µg/mL"}, {"measurement": "MIC", "setting": "[4]", "result": "< 0.06", "unit": "µg/mL"}, {"measurement": "MIC", "setting": "[5]", "result": "< 0.06", "unit": "µg/mL"}]}, {"smiles": "CCCCCCCCCCCCCCCC(=O)N1C2=C3NC(=O)/C(C)=C\\C=C\\[C@H](C)[C@H](O)[C@@H](C)[C@@H](O)[C@@H](C)[C@H](OC(C)=O)[C@H](C)[C@@H](OC)/C=C/O[C@@]4(C)Oc5c(C)c(O)c(c(c5C4=O)C2=NC12CCN(CC(C)C)CC2)C3=O", "values": [{"measurement": "MIC", "setting": "[1]", "result": "> 2", "unit": "µg/mL"}, {"measurement": "MIC", "setting": "[2]", "result": "< 0.06", "unit": "µg/mL"}, {"measurement": "MIC", "setting": "[3]", "result": 0.06, "unit": "µg/mL"}, {"measurement": "MIC", "setting": "[4]", "result": "< 0.06", "unit": "µg/mL"}, {"measurement": "MIC", "setting": "[5]", "result": "< 0.06", "unit": "µg/mL"}]}]}
